For experiment [1], the system named is hippocampal slices from Fmr1 knockout or WT mice. The experiment can be described thus: De novo hippocampal protein synthesis in vitro (SUnSET). The settings on record: hippocampal slices from Fmr1 KO mice, 300 μM. It counts as cell-based, mouse. On the procedure:
(§1) In all cases, saline was used as a vehicle (control).
Transverse hippocampal slices (400 μm) were obtained from 6-week-old Fmr1 knockout and WT mice. A protein synthesis assay was performed as previously described using the nonradioactive fluorescence-activated cell sorting-based assay, surface sensing of translation (SUnSET) method, which allows the monitoring and quantification of global protein synthesis in individual mammalian cells and in heterogeneous cell populations. (Hoeffer, 2011).

Experiment [2] relates to primary hippocampal neurons from Fmr1 knockout mice. The experiment can be described thus: Dendritic filopodia density and maturation in vitro. Type of experiment: cell-based, mouse. The settings on record: neurons from Fmr1 KO mice, 300 μM, five hours. The method, then: as §1
Hippocampal cell cultures were prepared from wild type and Fmr1 KO fetal mice at embryonic day of gestation 17.5 (E17.5). Mice were killed by cervical dislocation and dissociated hippocampal cells were plated in 15 mm multi well vessels (Falcon Primaria). After 5 d in vitro, green fluorescent protein (GFP) was transfected to facilitate monitoring dendritic spine morphogenesis after drug treatment (Ethell and Yamaguchi, 1999; Ethell et al., 2001, Henkemeyer et al., 2003). Dendritic spines were formed at around 16 days in vitro (DIV).
Filopodia density of GFP transfected neurons was quantified by performing Sholl analyses of stacked Zeiss confocal generated images (40× objective, stack of 20×0.2 μm). With Metamorph software, concentric equally spaced circles (every 20 μm) were drawn around the cell soma of each neuron and subsequently, the amount of filopodia was counted per circle. Averages of counts were compared with unpaired two-tailed Student's T-tests.
Spine maturity of GFP transfected neurons was analyzed with Metamorph software (Molecular Devices, Sunnyvale, Calif.). Two distal dendritic segments of 70 100 μm were chosen per neuron for spine morphometric analysis. For each spine, the length and the width were measured. The length was defined as the distance from the base to the tip of the protrusion; whereas width was defined as the maximum distance perpendicular to the long axis of the spine. Measurements were compared with unpaired two tailed Student's T-tests and ANOVA corrected for multiple comparisons.

Experiment [3] concerns Fmr1 knockout (KO) or Wild Type (WT) mice. The experiment can be described thus: T-maze rewarded alternation task. Type of experiment: in vivo, mouse. Particulars: 2 months old, 150 mg/kg once daily 7 days, Study 1. On the procedure:
(§2) Fmr1 knockout mice (KO2) mice (The Dutch-Belgium Fragile X Consortium, 1994), initially obtained from the Jackson Laboratory, and wild type (WT) littermates were generated on a C57BL/6J background and repeatedly backcrossed onto a C57BL/6J background for more than eight generations. The Fmr1 knockout mice were housed in groups of the same genotype in a temperature and humidity controlled room with a 12-h light-dark cycle (lights on from 7 am to 7 pm; testing was conducted during light phase). Room temperature and humidity were recorded continuously in the holding room while food and water were available ad libitum. Testing was conducted on healthy Fmr1 knockout mice and their wild type littermates (N=10 mice per treatment group) at 2 or 6 months of age during the behavioral experiments. Mice were housed in commercial plastic cages and experiments were conducted in line with the requirements of the UK Animals (Scientific Procedures) Act, 1986. All experiments were conducted with experimenters blind to genotype and drug treatment. Animals were allowed a minimum acclimatization period of one week prior to performing any experiment. No prophylactic or therapeutic treatment was administered during the acclimatization period.
as §1
An elevated or enclosed apparatus in the form of a T (placed horizontally) was used. […]

The test system is the same in experiment [4]. In words: Y-maze spontaneous alternation. It counts as in vivo, mouse. Particulars: 2 months old, 150 mg/kg once daily 7 days, Study 1. The method, then:
as §2, §1
Two tasks were implemented. The first was an unlearned assessment of spontaneous alternation between arm entries. […]

Experiment [5] shares this test system. The experiment can be described thus: Successive alleys (anxiety and hyperactivity). Type of experiment: in vivo, mouse. Particulars: 2 months old, 150 mg/kg once daily 7 days, Study 1. On the procedure: as §2, §1
The apparatus consisted of four successive, linearly arranged, increasingly anxiogenic alleys (each succeeding alley was painted a lighter color, had lower walls and/or was narrower than the previous alley) made of painted wood. Each section or alley was 25 cm long. Alley 1 had 25 cm high walls, was 8.5 cm wide, and was painted black. A 0.5 cm step down led to alley 2, which was again 8.5 cm wide, but had 1.3 cm high walls and was grey. A 1.0 cm step down led to alley 3, which was 3.5 cm wide, had 0.8 cm high walls, and was white. A 0.4 cm step led down to alley 4, which was also white, but had 1.2 cm wide and 0.2 cm high walls. The apparatus was elevated by anchoring the back of alley 1 to a stand, 50 cm high. Padding was provided under arms 3 and 4 in case a mouse fell off. Each mouse was placed at the closed end of alley 1 facing the wall. Timers were started 1) for the overall length of the test (5 min)+the latency to enter each arm, and 2) for the time spent in alley 1. When the mouse placed all 4 feet on to the next alley, it was considered to have entered the alley. Total time spent in each alley (all four feet) was recorded.
Multivariate analysis of variance was employed to assess group differences across data. Repeated measures ANOVA were performed for behavioral data. Statistically significant effects in each ANOVA were followed with post hoc comparisons, using the Newman-Keuls test (Study 1) or the Tukey test (Study 2). A p value of less than 0.05 was considered significant.
The successive alleys test effectively measured anxiety (latency to enter the Alley 1) and hyperactivity (Alleys 2 to 4). Progression from Alley 1 through the successive Alleys 2, 3, and 4 was associated with exposure to an increasingly brightly colored environment with increasingly lower walls and narrower, more exposed open arms. Time spent on, and entries into, the open arms indicated anxiety; conversely, increasing time spent in more open arms reflected hyperactivity. These factors allowed for a sensitive test bracketing a range of anxiety-like behaviors together with hyperactivity.

Entries after “also recorded” stand apart in the source; their conditions may differ.

As to `Cc1ncc(CO)c(CO)c1O.O=C1CC[C@@H](C(=O)O)N1` [metadoxine, pyridoxol L,2-pyrrolidon-5 carboxylate], the “basal de novo protein synthesis” value in experiment [1] was “reduced protein synthesis rates in Fmr1 knockout mouse hippocampi. This effect was partial”. In experiment [2], the “density of neuronal filopodia” value is listed as “reduced the aberrant increase in density of neuronal filopodia”, the filopodia length result is “reversed this increase in filopodia length” and the filopodia width entry is “reversed the decrease in width”. The “T-maze rewarded alternation working memory (latency to reach the correct arm)” value in experiment [3] is listed as “reversal being partial; also recorded: significant improvement in memory”. In experiment [4], the Y-maze spontaneous alternation entry is “partial reversal of the deficit”. For the same compound, in experiment [5] (Fmr1 KO mice), the “successive alleys, Alley 1 (anxiety)” value is recorded as “complete normalization occurred”; the “successive alleys, Alley 2 (hyperactivity)” value is reported as “reversal of hyperactivity was partial”; the “successive alleys, Alley 3 (hyperactivity)” value is “hyperactivity was not reversed”; the “successive alleys, Alley 4 (hyperactivity)” value is listed as “reversed this hyperactivity”. Besides, in experiment [5] (WT mice), the “successive alleys, Alley 1 (anxiety)” value is “no effect on WT mice”; the “successive alleys, Alley 2 (activity)” value is reported as “no effect on WT mice”; the “successive alleys, Alley 3 (activity)” value is recorded as “no effect on WT mice”; the “successive alleys, Alley 4 (activity)” value was “no effect on WT mice”.

Values taken from patent US9851354B2, “Methods of treating fragile X syndrome and related disorders” (Alcobra Ltd., priority 2013, dated 2017).
